Results: ChEMBL document CHEMBL4811255, “Antibacterial and Antifungal Polyketides from the Fungus Aspergillus unguis PSU-MF16” (J Nat Prod, 2021)
Values after ≈ are worked out from the molar mass of the structure shown. Active and inactive are the calls of the source. No cut-off for these calls is given here.

Experiments:
[1] = tested on: Cryptococcus neoformans; test: Antifungal activity against Cryptococcus neoformans ATCC 90113 assessed as fungal growth inhibition incubated for 24 to 48 hrs by CLSI protocol based agar microdilution method; format: functional; conditions: time 24-48 hrs
[2] = tested on: Staphylococcus aureus; test: Antibacterial activity against methicillin-resistant Staphylococcus aureus assessed as bacterial growth inhibition by CLSI protocol based assay; format: functional
[3] = tested on: Vero; test: Cytotoxicity against African green monkey Vero cells by colorimetric assay; format: cell-based; conditions: Chlorocebus sabaeus
[4] = tested on: Staphylococcus aureus; test: Antibacterial activity against Staphylococcus aureus ATCC 25923 assessed as bacterial growth inhibition incubated for 18 hrs by CLSI protocol based agar microdilution method; format: functional
[5] = tested on: Cryptococcus neoformans; test: Antifungal activity against Cryptococcus neoformans ATCC 90113 assessed as fungal growth inhibition by CLSI protocol based assay; format: functional
[6] = tested on: Staphylococcus aureus; test: Antibacterial activity against Staphylococcus aureus ATCC 25923 assessed as bacterial growth inhibition by CLSI protocol based assay; format: functional
[7] = tested on: Candida albicans; test: Antifungal activity against Candida albicans NCPF 90028 assessed as fungal growth inhibition incubated for 24 to 48 hrs by CLSI protocol based agar microdilution method; format: functional; conditions: time 24-48 hrs
[8] = tested on: Staphylococcus aureus; test: Antibacterial activity against methicillin-resistant Staphylococcus aureus assessed as bacterial growth inhibition incubated for 18 hrs by CLSI protocol based agar microdilution method; format: functional
[9] = tested on: Candida albicans; test: Antifungal activity against Candida albicans NCPF 90028 assessed as fungal growth inhibition at 50 ug/ml by CLSI protocol based assay; format: functional, organism-based; conditions: dose 50.0 µg/ml
[10] = tested on: Nannizzia gypsea; test: Antifungal activity against Microsporum gypseum assessed as fungal growth inhibition incubated for 4 days by CLSI protocol based agar microdilution method; format: functional; conditions: 96 h, time 4 day
[11] = tested on: Vero; test: Cytotoxicity against African green monkey Vero cells incubated for 24 hrs by MTT assay; format: cell-based; conditions: Chlorocebus sabaeus
[12] = tested on: Candida albicans; test: Antifungal activity against Candida albicans NCPF 90028 assessed as fungal growth inhibition by CLSI protocol based assay; format: functional
[13] = tested on: Staphylococcus aureus; test: Antibacterial activity against Staphylococcus aureus ATCC 25923 assessed as bacterial growth inhibition at 50 ug/ml by CLSI protocol based assay; format: functional, organism-based; conditions: dose 50.0 µg/ml
[14] = tested on: Nannizzia gypsea; test: Antifungal activity against Microsporum gypseum assessed as fungal growth inhibition at 50 ug/ml by CLSI protocol based assay; format: functional, organism-based; conditions: dose 50.0 µg/ml
[15] = tested on: Vero; test: Cytotoxicity against African green monkey Vero cells at 50 ug/ml incubated for 24 hrs by MTT assay; format: cell-based; conditions: chlorocebus sabaeus, dose 50 µg/ml
[16] = tested on: Staphylococcus aureus; test: Antibacterial activity against methicillin-resistant Staphylococcus aureus assessed as bacterial growth inhibition at 50 ug/ml by CLSI protocol based assay; format: functional, organism-based; conditions: dose 50.0 µg/ml
[17] = tested on: Nannizzia gypsea; test: Antifungal activity against Microsporum gypseum assessed as fungal growth inhibition by CLSI protocol based assay; format: functional

Row | Compound | MIC [1] | MIC [2] | IC50 [3] | MIC [4] | MIC [5] | MIC [6] | MIC [7] | MIC [8] | Activity [9] | MIC [10] | IC50 [11] | MIC [12] | Activity [13] | Activity [14] | Activity [15] | Activity [16] | MIC [17]
1 | C/C=C(\C)c1cc(O)c(C)c2c1C(=O)Oc1c(C)c(O)c(Cl)c(/C(C)=C/C)c1O2 | 0.25 µg/mL (≈ 0.603 µM) | 0.5 µg/mL (≈ 1.21 µM) | 4.6 µg/mL (≈ 11.1 µM) | 0.25 µg/mL (≈ 0.603 µM) | 0.5 µg/mL (≈ 1.21 µM) | 0.5 µg/mL (≈ 1.21 µM) | 0.25 µg/mL (≈ 0.603 µM) | 0.5 µg/mL (≈ 1.21 µM) | inactive | 1 µg/mL (≈ 2.41 µM) | 16 µg/mL (≈ 38.6 µM) |  |  |  |  |  | 
2 | Cc1c2ccncc2c(C)c2c1[nH]c1ccccc12 [ELLIPTECINE] |  |  | 4 µg/mL (≈ 16.2 µM) |  |  |  |  |  |  |  |  |  |  |  |  |  | 
3 | C/C=C(\C)c1c(Cl)c(O)c(C)c2c1Oc1cc(O)c(Cl)c(C)c1C(=O)O2 | 0.25 µg/mL (≈ 0.633 µM) | 1 µg/mL (≈ 2.53 µM) | 4.6 µg/mL (≈ 11.6 µM) | 0.25 µg/mL (≈ 0.633 µM) | 128 µg/mL (≈ 324 µM) | 2 µg/mL (≈ 5.06 µM) | 0.25 µg/mL (≈ 0.633 µM) | 0.5 µg/mL (≈ 1.27 µM) |  | 1 µg/mL (≈ 2.53 µM) | 8.9 µg/mL (≈ 22.5 µM) | 200 µg/mL (≈ 506 µM) |  |  |  |  | 
4 | C/C=C(\C)c1c2c(c(C)c(O)c1C(=O)O)OC(=O)c1c(C)cc(O)cc1O2 | 0.25 µg/mL (≈ 0.675 µM) |  | 4.6 µg/mL (≈ 12.4 µM) | 0.25 µg/mL (≈ 0.675 µM) | 200 µg/mL (≈ 540 µM) |  | 0.25 µg/mL (≈ 0.675 µM) | 0.5 µg/mL (≈ 1.35 µM) | inactive | 1 µg/mL (≈ 2.7 µM) |  |  | inactive | inactive | Non-Toxic | inactive | 
5 | C/C=C(\C)c1cc(O)c(C)c2c1Oc1cc(O)c(Cl)c(C)c1C(=O)O2 | 0.25 µg/mL (≈ 0.693 µM) | 8 µg/mL (≈ 22.2 µM) | 4.6 µg/mL (≈ 12.7 µM) |  | 32 µg/mL (≈ 88.7 µM) | 8 µg/mL (≈ 22.2 µM) | 0.25 µg/mL (≈ 0.693 µM) | 0.5 µg/mL (≈ 1.39 µM) |  | 1 µg/mL (≈ 2.77 µM) | 86 µg/mL (≈ 238 µM) | 8 µg/mL (≈ 22.2 µM) |  |  |  |  | 8 µg/mL (≈ 22.2 µM)
6 | Clc1ccccc1C(c1ccccc1)(c1ccccc1)n1ccnc1 [CLOTRIMAZOLE] |  |  |  |  |  |  |  |  |  | 2 µg/mL (≈ 5.8 µM) |  |  |  |  |  |  | 
7 | C/C=C(\C)c1cc(O)c(C)c2c1Oc1c(C)c(O)cc(/C(C)=C/C)c1C(=O)O2 | 0.25 µg/mL (≈ 0.657 µM) | 1 µg/mL (≈ 2.63 µM) |  | 0.25 µg/mL (≈ 0.657 µM) | 1 µg/mL (≈ 2.63 µM) | 2 µg/mL (≈ 5.26 µM) | 0.25 µg/mL (≈ 0.657 µM) | 0.5 µg/mL (≈ 1.31 µM) | inactive | 1 µg/mL (≈ 2.63 µM) | 17 µg/mL (≈ 44.7 µM) |  |  |  |  |  | 
8 | C/C=C(\C)c1cc(O)c(C)c2c1Oc1cc(O)cc(C)c1C(=O)O2 | 0.25 µg/mL (≈ 0.766 µM) |  |  |  | 200 µg/mL (≈ 613 µM) | 128 µg/mL (≈ 392 µM) |  |  | inactive | 1 µg/mL (≈ 3.06 µM) |  |  |  | inactive | Non-Toxic | inactive | 
9 | C/C=C(\C)c1cc(O)c(C)c2c1C(=O)Oc1c(C)c(O)c(C(=O)O)c(/C(C)=C/C)c1O2 | 0.25 µg/mL (≈ 0.589 µM) | 64 µg/mL (≈ 151 µM) | 4.6 µg/mL (≈ 10.8 µM) | 0.25 µg/mL (≈ 0.589 µM) | 64 µg/mL (≈ 151 µM) |  | 0.25 µg/mL (≈ 0.589 µM) | 0.5 µg/mL (≈ 1.18 µM) | inactive | 1 µg/mL (≈ 2.36 µM) |  |  |  | inactive | Non-Toxic |  | 200 µg/mL (≈ 471 µM)
10 | C/C=C(\C)c1cc(O)c(C)c(O)c1C(=O)Oc1cc2c(c(O)c1C)C(=O)O[C@@]2(C)CC | 0.25 µg/mL (≈ 0.586 µM) | 200 µg/mL (≈ 469 µM) | 4.6 µg/mL (≈ 10.8 µM) | 0.25 µg/mL (≈ 0.586 µM) | 200 µg/mL (≈ 469 µM) | 200 µg/mL (≈ 469 µM) | 0.25 µg/mL (≈ 0.586 µM) | 0.5 µg/mL (≈ 1.17 µM) | inactive | 1 µg/mL (≈ 2.34 µM) | 45 µg/mL (≈ 106 µM) |  |  | inactive |  |  | 
11 | C/C=C(\C)c1c(Cl)c(OC)c(C)c2c1Oc1c(Cl)c(O)c(Cl)c(C)c1C(=O)O2 | 0.25 µg/mL (≈ 0.563 µM) | 8 µg/mL (≈ 18 µM) | 4.6 µg/mL (≈ 10.4 µM) | 0.25 µg/mL (≈ 0.563 µM) | 16 µg/mL (≈ 36.1 µM) | 4 µg/mL (≈ 9.01 µM) | 0.25 µg/mL (≈ 0.563 µM) | 0.5 µg/mL (≈ 1.13 µM) | inactive | 1 µg/mL (≈ 2.25 µM) | 57 µg/mL (≈ 128 µM) |  |  | inactive |  |  | 
12 | C/C=C(\C)c1cc(O)c(C)c(OC(=O)c2c(/C(C)=C/C)cc(O)c(C)c2O)c1 [AGONODEPSIDE A] | 0.25 µg/mL (≈ 0.654 µM) | 2 µg/mL (≈ 5.23 µM) |  | 0.25 µg/mL (≈ 0.654 µM) |  |  |  | 0.25 µg/mL (≈ 0.654 µM) |  |  |  |  |  |  |  |  | 
13 | C/C=C(\C)c1cc(OC(=O)c2c(C)cc(O)cc2O)c(C)c(O)c1C(=O)O | 0.25 µg/mL (≈ 0.671 µM) | 128 µg/mL (≈ 344 µM) | 4.6 µg/mL (≈ 12.4 µM) | 0.25 µg/mL (≈ 0.671 µM) | 32 µg/mL (≈ 85.9 µM) | 128 µg/mL (≈ 344 µM) | 0.25 µg/mL (≈ 0.671 µM) | 0.5 µg/mL (≈ 1.34 µM) | inactive | 1 µg/mL (≈ 2.69 µM) | 110 µg/mL (≈ 295 µM) |  |  | inactive |  |  | 
14 | C/C=C(\C)c1c(Cl)c(O)c(C)c2c1Oc1c(Cl)c(O)c(Cl)c(C)c1C(=O)O2 | 0.25 µg/mL (≈ 0.582 µM) | 2 µg/mL (≈ 4.65 µM) | 4.6 µg/mL (≈ 10.7 µM) | 0.25 µg/mL (≈ 0.582 µM) | 8 µg/mL (≈ 18.6 µM) | 2 µg/mL (≈ 4.65 µM) | 0.25 µg/mL (≈ 0.582 µM) | 0.5 µg/mL (≈ 1.16 µM) | inactive | 1 µg/mL (≈ 2.33 µM) | 110 µg/mL (≈ 256 µM) |  |  | inactive |  |  | 
15 | COC(=O)c1c(C)cc(O)cc1O [METHYL ORSELLINATE] | 0.25 µg/mL (≈ 1.37 µM) |  | 4.6 µg/mL (≈ 25.3 µM) | 0.25 µg/mL (≈ 1.37 µM) | 200 µg/mL (≈ 1100 µM) |  | 0.25 µg/mL (≈ 1.37 µM) | 0.5 µg/mL (≈ 2.74 µM) | inactive | 1 µg/mL (≈ 5.49 µM) |  |  | inactive | inactive | Non-Toxic | inactive | 
16 | C=C(c1cc(O)c(C)c2c1Oc1cc(O)cc(C)c1C(=O)O2)[C@H](C)O | 0.5 µg/mL (≈ 1.46 µM) |  |  |  |  |  |  |  |  | 0.5 µg/mL (≈ 1.46 µM) |  |  |  |  |  |  | 
17 | C[C@@H]1[C@H](O)[C@@H](C)/C=C/C=C/C=C/C=C/C=C/C=C/C=C/[C@H](O[C@@H]2O[C@H](C)[C@@H](O)[C@H](N)[C@@H]2O)C[C@@H]2O[C@](O)(C[C@@H](O)C[C@@H](O)[C@H](O)CC[C@@H](O)C[C@@H](O)CC(=O)O[C@H]1C)C[C@H](O)[C@H]2C(=O)O [AMPHOTERICIN B] | 2 µg/mL (≈ 2.16 µM) |  |  |  |  |  | 0.5 µg/mL (≈ 0.541 µM) |  |  |  |  |  |  |  |  |  | 
18 | C/C=C(\C)c1cc(O)c(C)c(O)c1C(=O)Oc1cc(/C(C)=C/C)c(C(=O)O)c(O)c1C [AGONODEPSIDE B] | 0.5 µg/mL (≈ 1.17 µM) | 16 µg/mL (≈ 37.5 µM) |  |  |  |  |  | 0.5 µg/mL (≈ 1.17 µM) |  | 0.5 µg/mL (≈ 1.17 µM) |  |  |  |  |  |  | 
